Source: ChEMBL document CHEMBL1909046, “DrugMatrix in vitro pharmacology data”

How the values were obtained:
[1] = DRUGMATRIX: Platelet-Derived Growth Factor (PDGF) radioligand binding (ligand: [125I] PDGF); type: cell-based; conditions: nih3t3; Not Active = under 50% inhibition at 10 µM
[2] = DRUGMATRIX: beta-Lactamase enzyme inhibition (substrate: Nitrocefin); set-up: species or system Bacillus cereus; conditions: Not Active = under 50% inhibition at 10 µM
[3] = biological target: T1, Muscarinic acetylcholine receptor M4 (Homo sapiens, UniProt P08173); type: cell membranes, CHO-K1, Membrane; conditions: for Ki: read-out: Ki; as to all read-outs here: in other assays of this panel Not Active means under 50% inhibition at 10 µM
T1 sequence (P08173 whole entry): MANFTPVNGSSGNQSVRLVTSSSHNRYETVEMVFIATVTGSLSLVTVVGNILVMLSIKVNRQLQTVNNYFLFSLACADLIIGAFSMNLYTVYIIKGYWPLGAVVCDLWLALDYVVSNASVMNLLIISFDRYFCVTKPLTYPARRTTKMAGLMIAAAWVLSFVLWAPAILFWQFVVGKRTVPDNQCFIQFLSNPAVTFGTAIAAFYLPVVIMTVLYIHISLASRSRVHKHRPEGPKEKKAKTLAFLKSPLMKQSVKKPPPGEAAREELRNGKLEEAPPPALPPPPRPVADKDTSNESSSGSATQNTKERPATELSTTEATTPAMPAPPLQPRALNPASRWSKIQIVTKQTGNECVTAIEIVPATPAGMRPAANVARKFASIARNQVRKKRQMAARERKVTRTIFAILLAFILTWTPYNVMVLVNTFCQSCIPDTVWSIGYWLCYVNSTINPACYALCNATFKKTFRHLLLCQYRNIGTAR

Calcitonin receptor = biological target: T2, Calcitonin receptor (Homo sapiens, UniProt P30988); type: cell membranes, Membrane; conditions: t47d; also: in other assays of this panel Not Active means under 50% inhibition at 10 µM
T2 sequence (P30988 whole entry): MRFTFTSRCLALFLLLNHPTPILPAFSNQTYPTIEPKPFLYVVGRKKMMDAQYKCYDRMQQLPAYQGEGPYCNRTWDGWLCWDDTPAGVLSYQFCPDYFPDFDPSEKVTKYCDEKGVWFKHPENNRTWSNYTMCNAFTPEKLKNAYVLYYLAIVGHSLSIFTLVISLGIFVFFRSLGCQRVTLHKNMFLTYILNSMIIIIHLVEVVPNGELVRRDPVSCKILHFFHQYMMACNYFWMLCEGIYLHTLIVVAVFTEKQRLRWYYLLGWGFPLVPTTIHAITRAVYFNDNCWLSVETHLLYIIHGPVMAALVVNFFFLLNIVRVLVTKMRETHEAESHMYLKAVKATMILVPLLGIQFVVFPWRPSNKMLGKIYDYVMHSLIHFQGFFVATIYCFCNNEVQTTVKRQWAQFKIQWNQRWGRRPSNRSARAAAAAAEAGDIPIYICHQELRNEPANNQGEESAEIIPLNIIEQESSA

[4] = DRUGMATRIX: Phorbol Ester radioligand binding (ligand: [3H] PDBu); type: cell membranes, Mus musculus, ICR, Brain, Membrane; conditions: Not Active = under 50% inhibition at 10 µM
[5] = DRUGMATRIX: Sigma2 radioligand binding (ligand: [3H] Ifenprodil); type: cell membranes, Rattus norvegicus, Wistar, Brain, Membrane; conditions: Not Active = under 50% inhibition at 10 µM
Adenosine receptor A1 = biological target: T3, Adenosine receptor A1 (Homo sapiens, UniProt P30542); type: cell membranes, CHO, Membrane; conditions: cho;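 also: radioligand binding assay at the adenosine A1 receptor, with DPCPX serving as the labelled ligand; in other assays of this panel Not Active means under 50% inhibition at 10 µM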
T3 sequence (P30542 whole entry): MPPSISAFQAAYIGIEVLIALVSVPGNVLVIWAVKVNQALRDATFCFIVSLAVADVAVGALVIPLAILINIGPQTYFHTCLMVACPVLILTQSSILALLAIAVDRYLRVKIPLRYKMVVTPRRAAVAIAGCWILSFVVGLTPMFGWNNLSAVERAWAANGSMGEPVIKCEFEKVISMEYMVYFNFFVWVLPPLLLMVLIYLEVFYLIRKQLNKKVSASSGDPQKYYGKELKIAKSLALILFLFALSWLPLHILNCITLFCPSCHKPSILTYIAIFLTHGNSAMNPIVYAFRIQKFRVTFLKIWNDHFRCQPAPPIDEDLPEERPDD

[6] = biological target: T4, Polyunsaturated fatty acid lipoxygenase ALOX15 (Oryctolagus cuniculus, UniProt P12530); experiment: biochemical; type: tissue-based, Reticulocytes; conditions: reticulocytes;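 also: inhibition of 15-lipoxygenase enzyme activity measured with linoleic acid as the substrate; in other assays of this panel Not Active means under 50% inhibition at 10 µM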
T4 sequence (P12530 whole entry): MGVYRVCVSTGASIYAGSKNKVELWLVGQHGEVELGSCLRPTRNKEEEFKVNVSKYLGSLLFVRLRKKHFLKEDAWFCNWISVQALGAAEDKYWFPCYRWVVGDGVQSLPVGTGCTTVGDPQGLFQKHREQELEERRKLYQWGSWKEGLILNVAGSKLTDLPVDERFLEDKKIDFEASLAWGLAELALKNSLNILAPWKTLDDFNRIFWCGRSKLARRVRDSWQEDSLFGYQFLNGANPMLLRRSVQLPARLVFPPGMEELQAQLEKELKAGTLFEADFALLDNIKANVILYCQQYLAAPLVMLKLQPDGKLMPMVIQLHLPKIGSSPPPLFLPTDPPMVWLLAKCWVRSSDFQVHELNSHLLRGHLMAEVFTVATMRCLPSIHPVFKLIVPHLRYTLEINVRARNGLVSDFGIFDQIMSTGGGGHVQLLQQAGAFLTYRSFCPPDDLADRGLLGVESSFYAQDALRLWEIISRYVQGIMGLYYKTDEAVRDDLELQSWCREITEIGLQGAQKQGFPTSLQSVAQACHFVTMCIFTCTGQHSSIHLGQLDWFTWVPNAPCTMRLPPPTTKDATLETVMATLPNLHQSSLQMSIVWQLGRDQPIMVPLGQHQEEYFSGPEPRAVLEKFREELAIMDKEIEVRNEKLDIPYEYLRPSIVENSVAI

[7] = DRUGMATRIX: Purinergic P2X radioligand binding (ligand: [3H] alpha, beta-Methylene-ATP); type: cell membranes, Oryctolagus cuniculus, New Zealand albino, Urinary bladder, Membrane; conditions: Not Active = under 50% inhibition at 10 µM
[8] = biological target: Beta-1 adrenergic receptor (Homo sapiens, UniProt P08588); experiment: DRUGMATRIX: Adrenergic beta1 radioligand binding (ligand: [125I] Cyanopindolol); type: cell membranes, CHO-K1, Membrane; conditions: Not Active = under 50% inhibition at 10 µM
Beta-1 adrenergic receptor, sequence (P08588 whole entry): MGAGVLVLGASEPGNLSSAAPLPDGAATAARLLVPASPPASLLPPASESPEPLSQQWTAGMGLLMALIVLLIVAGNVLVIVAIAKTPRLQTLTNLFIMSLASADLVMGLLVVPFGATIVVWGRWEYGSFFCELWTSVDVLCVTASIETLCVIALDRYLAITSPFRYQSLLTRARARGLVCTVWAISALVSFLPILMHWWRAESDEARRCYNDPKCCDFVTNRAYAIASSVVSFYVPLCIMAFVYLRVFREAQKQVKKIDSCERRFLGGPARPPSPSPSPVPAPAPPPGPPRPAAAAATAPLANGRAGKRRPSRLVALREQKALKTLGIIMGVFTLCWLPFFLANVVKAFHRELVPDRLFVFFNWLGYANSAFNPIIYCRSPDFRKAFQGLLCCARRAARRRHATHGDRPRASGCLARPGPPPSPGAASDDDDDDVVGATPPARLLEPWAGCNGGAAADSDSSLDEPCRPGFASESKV

Histamine H2 receptor = Histamine H2 receptor (Homo sapiens, UniProt P25021); type: cell membranes, CHO-K1, Membrane; conditions: for Ki: read-out: Ki
Histamine H2 receptor, sequence (P25021 whole entry): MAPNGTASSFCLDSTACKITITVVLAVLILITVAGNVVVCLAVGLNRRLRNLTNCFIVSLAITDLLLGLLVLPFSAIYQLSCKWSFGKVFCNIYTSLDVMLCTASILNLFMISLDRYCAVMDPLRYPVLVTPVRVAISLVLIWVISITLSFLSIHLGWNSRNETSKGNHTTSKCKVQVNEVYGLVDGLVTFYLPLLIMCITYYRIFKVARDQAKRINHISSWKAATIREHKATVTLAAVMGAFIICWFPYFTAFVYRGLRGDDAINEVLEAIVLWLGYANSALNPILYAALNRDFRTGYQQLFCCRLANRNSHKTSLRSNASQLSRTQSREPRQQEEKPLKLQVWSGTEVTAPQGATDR

D(1A) dopamine receptor = D(1A) dopamine receptor (Homo sapiens, UniProt P21728); experiment: DRUGMATRIX: Dopamine D1 radioligand binding (ligand: [3H] SCH-23390); type: cell membranes, CHO, Membrane; conditions: cho; Not Active = under 50% inhibition at 10 µM
D(1A) dopamine receptor, sequence (P21728 whole entry): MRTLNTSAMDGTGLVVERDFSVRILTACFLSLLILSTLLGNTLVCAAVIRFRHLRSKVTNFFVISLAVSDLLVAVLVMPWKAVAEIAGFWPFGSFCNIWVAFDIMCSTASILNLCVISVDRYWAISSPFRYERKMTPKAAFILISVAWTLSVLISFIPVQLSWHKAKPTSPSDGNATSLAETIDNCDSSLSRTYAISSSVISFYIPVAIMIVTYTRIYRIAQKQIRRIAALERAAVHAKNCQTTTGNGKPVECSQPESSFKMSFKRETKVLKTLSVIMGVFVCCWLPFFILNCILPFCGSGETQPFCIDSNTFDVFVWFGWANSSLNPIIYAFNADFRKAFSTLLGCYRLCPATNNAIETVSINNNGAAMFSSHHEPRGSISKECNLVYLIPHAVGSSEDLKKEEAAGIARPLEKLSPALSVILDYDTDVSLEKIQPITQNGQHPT

[9] = DRUGMATRIX: Glutamate, Kainate radioligand binding (ligand: [3H] Kainic acid); type: cell membranes, Rattus norvegicus, Wistar, Brain, Membrane; conditions: Not Active = under 50% inhibition at 10 µM
[10] = biological target: Mitogen-activated protein kinase 14 (Homo sapiens, UniProt Q16539); set-up: species or system Escherichia coli
Mitogen-activated protein kinase 14, sequence (Q16539 whole entry): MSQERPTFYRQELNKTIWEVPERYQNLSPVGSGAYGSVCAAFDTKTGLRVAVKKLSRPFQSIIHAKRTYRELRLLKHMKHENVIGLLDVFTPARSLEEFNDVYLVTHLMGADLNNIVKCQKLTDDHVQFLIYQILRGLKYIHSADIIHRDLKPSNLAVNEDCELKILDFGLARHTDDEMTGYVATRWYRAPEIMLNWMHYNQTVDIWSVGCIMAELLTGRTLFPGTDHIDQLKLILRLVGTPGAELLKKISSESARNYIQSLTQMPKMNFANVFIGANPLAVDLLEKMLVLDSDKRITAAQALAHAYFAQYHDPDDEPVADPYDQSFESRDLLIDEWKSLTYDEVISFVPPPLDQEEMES

| SMILES | IC50 [1] | Ki [1] | IC50 [2] | Ki [2] | IC50 ([3]; cho-k1) | IC50 (Calcitonin receptor) | IC50 [4] | Ki [4] | IC50 [5] | Ki [5] | IC50 (Adenosine receptor A1) | IC50 [6] | IC50 [7] | Ki [7] | IC50 ([8]; cho-k1) | IC50 (Histamine H2 receptor; cho-k1) | IC50 (D(1A) dopamine receptor) | IC50 [9] | Ki [9] | IC50 [10] | other results |
| --- | --- | --- | --- | --- | --- | --- | --- | --- | --- | --- | --- | --- | --- | --- | --- | --- | --- | --- | --- | --- | --- |
| CCOC(=O)[C@H](CCc1ccccc1)N[C@@H](C)C(=O)N1[C@H](C(=O)O)C[C@@H]2CCC[C@@H]21 | Not Active | Not Active | Not Active | Not Active | Not Active | Not Active | Not Active | Not Active | Not Active | Not Active | Not Active | Not Active | Not Active | Not Active | Not Active | Not Active | Not Active | Not Active | Not Active | Not Active |  |
| CC(C)(C)NC(=O)[C@@H]1CN(Cc2cccnc2)CCN1C[C@@H](O)C[C@@H](Cc1ccccc1)C(=O)N[C@H]1c2ccccc2C[C@H]1O.O | Not Active | Not Active | Not Active | Not Active | Not Active | Not Active | Not Active | Not Active | Not Active | Not Active | Not Active | Not Active | Not Active | Not Active | Not Active | Not Active | Not Active | Not Active | Not Active | Not Active |  |
| CC(C)(C)NCC(O)c1ccc(O)c(CO)c1 (configuration not stated) [ALBUTEROL] | Not Active | Not Active | Not Active | Not Active | Not Active | Not Active | Not Active | Not Active | Not Active | Not Active | Not Active | Not Active | Not Active | Not Active |  | Not Active | Not Active | Not Active | Not Active | Not Active |  |
| COc1ccc(CCN2CCC(Nc3nc4ccccc4n3Cc3ccc(F)cc3)CC2)cc1 [ASTEMIZOLE] |  |  |  |  |  | Not Active |  |  |  |  | Not Active | Not Active |  |  |  |  |  |  |  | Not Active | IC50 ([3]; read-out: IC50): 1860 nM; Ki [3]: 259 nM |
| CN(C)CCCN1c2ccccc2CCc2ccc(Cl)cc21 [CLOMIPRAMINE] |  |  |  |  |  | Not Active |  |  |  |  | Not Active | Not Active |  |  | Not Active |  |  |  |  | Not Active | IC50 ([3]; read-out: IC50): 91 nM; Ki [3]: 13 nM; IC50 (Histamine H2 receptor; read-out: IC50): 2050 nM; Ki (Histamine H2 receptor): 2020 nM |
| Clc1ccccc1C(c1ccccc1)(c1ccccc1)n1ccnc1 [CLOTRIMAZOLE] |  |  |  |  |  | Not Active |  |  |  |  |  | Not Active |  |  |  |  |  |  |  | Not Active | Ki [3]: 1640 nM; IC50 ([8]; read-out: IC50): 11300 nM; Ki ([8]; read-out: Ki): 6510 nM; IC50 (Histamine H2 receptor; read-out: IC50): 5170 nM; Ki (Histamine H2 receptor): 5080 nM |
| O=C(CCCN1CCC(O)(c2ccc(Cl)cc2)CC1)c1ccc(F)cc1 [HALOPERIDOL] |  |  |  |  | Not Active | Not Active |  |  |  |  | Not Active | Not Active |  |  | Not Active |  |  |  |  | Not Active |  |
| CC(CCc1ccccc1)NCC(O)c1ccc(O)c(C(N)=O)c1 (configuration not stated) [LABETALOL] | Not Active | Not Active | Not Active | Not Active | Not Active | Not Active | Not Active | Not Active |  |  | Not Active | Not Active | Not Active | Not Active |  | Not Active | Not Active | Not Active | Not Active | Not Active | IC50 ([5]; read-out: IC50): 2820 nM; Ki ([5]; read-out: Ki): 1730 nM |
| CN1CCN2c3ccccc3Cc3ccccc3C2C1 (configuration not stated) [MIANSERIN] |  |  |  |  |  | Not Active |  |  |  |  | Not Active | Not Active |  |  | Not Active |  |  |  |  | Not Active | IC50 ([3]; read-out: IC50): 2070 nM; Ki [3]: 288 nM |
| CC(C)(O)c1ccccc1CC[C@@H](SCC1(CC(=O)O)CC1)c1cccc(/C=C/c2ccc3ccc(Cl)cc3n2)c1 [MONTELUKAST] |  |  |  |  | Not Active | Not Active |  |  |  |  | Not Active | Not Active |  |  | Not Active | Not Active |  |  |  |  | IC50 ([10]; read-out: IC50): 856 nM |
| CC(C)(C)NCC(O)c1cc(O)cc(O)c1 (configuration not stated) [TERBUTALINE] | Not Active | Not Active | Not Active | Not Active | Not Active | Not Active | Not Active | Not Active | Not Active | Not Active | Not Active | Not Active | Not Active | Not Active |  | Not Active | Not Active | Not Active | Not Active | Not Active |  |
| CSc1ccc2c(c1)N(CCC1CCCCN1C)c1ccccc1S2 (configuration not stated) [THIORIDAZINE] |  |  |  |  |  | Not Active |  |  |  |  | Not Active | Not Active |  |  | Not Active |  |  |  |  | Not Active |  |
| COc1cccc(C2(O)CCCCC2CN(C)C)c1 (configuration not stated) [TRAMADOL] |  |  |  |  | Not Active | Not Active |  |  |  |  | Not Active | Not Active |  |  | Not Active | Not Active |  |  |  | Not Active |  |
